Tested on: Hs578T complex spheroid growth, percent test/control
Assay: Anticancer human tumor Hs578T cell line growth inhibition [AhR];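 also: luminescent viability signal as a proxy for spheroid growth; spheroids exposed to agents for one week after three days of growth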
Conditions: for IC50: curve of first compound; for viability, T/C: stronger effect = lower value
From the text: Multicellular complex tumor spheroid response to aryl hydrocarbon receptor antagonists in combination with a variety of drugs and investigational agents in selected tumor cell lines
The current study was undertaken to assess response to aryl hydrocarbon receptor antagonists in combination with standard-of-care drugs and investigational agents in solid tumor complex spheroid models. Complex spheroids include a stromal component modeled by human endothelial cells (HUVEC) and fibroblasts modeled by human mesenchymal stem cells (MSCs). The concentration ranges selected for each drug and investigational agent were based upon clinically achievable concentrations if the clinical Cmax of the agent was known.
Compounds. The drugs and investigational agents: BAY 2416964 (NSC825713), GNF351 (NSC835774), CH-223191 (NSC835775), CPI-455 (NSC825282), aza-TdCyd (NSC777586), decitabine (NSC127716), belinostat (NSC758774), entinostat (NSC756642), pevonedistat (NSC761192), tazemetostat (NSC777109), talazoparib (NSC765396), olaparib (NSC753686), selinexor (NSC780203), nedisertib (M3814, NSC802822), bortezomib (NSC756655), venetoclax (NSC766270), doxorubicin (NSC123127), elimusertib (BAY189344, NSC800525), ceralasertib (AZD6738, NSC777638), TAK-243 (NSC785004), alisertib (NSC759677), etoposide (NSC141540), topotecan (NSC609699), eribulin (NSC707389), gemcitabine (NSC613327), carboplatin (NSC241240), cisplatin (NSC119875), and SN-38 (NSC673596) were obtained from the National Cancer Institute (NCI) Developmental Therapeutics Program Chemical Repository (32). The FDA-approved anticancer drug set is available from the Developmental Therapeutics Program at https://dtp.cancer.gov/organization/dscb/obtaining/available plates.htm. […] The stock solutions were prepared in dimethyl sulfoxide (DMSO, Sigma-Aldrich, St. Louis, MO, cat. D2650), except for the platinum compounds which were prepared in saline (Quality Biological, Gaithersburg, MD, cat. 114-055-101), at 800-fold the tested concentration and stored at -70 degrees C prior to their use. All drugs and investigational agents were tested over a range starting from a high concentration at or near the clinical Cmax and decreasing in half-log increments. If the clinical Cmax for an agent had not been determined, the highest concentration tested was 10 microM (Table 1).
Cell Culture. All cells were maintained in an incubator at 37 degrees C and 5% CO2 with 95% humidity. The PDC lines were cultured according to standard operating procedures established by the NCI PDMR (https://pdmr.cancer.gov). Briefly, all PDCs were thawed and cultured in Matrigel-coated flasks prepared with a working solution of 1X Ham's F-12 nutrient mix, without supplementation (Invitrogen, Waltham, MA, cat. 11765054), 100 U/mL penicillin-streptomycin (Invitrogen, cat. 15140122), and 2.5% Matrigel (Corning Inc., Corning, NY, cat. 354248) for the first three passages. All PDCs were cultured in complete DMEM/F-12 media containing advanced DMEM/F-12 (Invitrogen, cat. 12634028), 4.9% defined fetal bovine serum, heat inactivated (HyClone Laboratories Inc., Logan, UT, cat. SH30070.03HI), 389 ng/mL hydrocortisone (Sigma-Aldrich, cat. H4001), 9.7 ng/mL human EGF recombinant protein (Invitrogen, cat. PHG0313), 23.4 microg/mL adenine (Sigma-Aldrich, cat. A2786), 97.3 U/mL penicillin-streptomycin (Invitrogen, cat. 15140122), 1.9 mM L-glutamine (Invitrogen, cat. 25030081), and 9.7 microM Y-27632 dihydrochloride (Tocris Bioscience, Bristol, United Kingdom, cat. 1254). The PDCs were cultured in complete DMEM/F12 media without 10 microM Y-27632 dihydrochloride for at least two passages prior to the screen. The established cell lines NCI-H1341 and […] were cultured in DMEM/F-12, HEPES (Invitrogen, cat. 11330032), 5% defined fetal bovine serum (HyClone Laboratories Inc., cat. SH30070.03), ITS premix universal culture supplement [insulin (5 microg/mL), transferrin (5 microg/mL), and selenious acid (5 ng/mL)] […]

[1] = second compound 0.1 µM, first compound 0.00316 µM
[2] = second compound 0.1 µM, first compound 0.01 µM
[3] = second compound 0.1 µM, first compound 0.0316 µM
[4] = second compound 0.1 µM, first compound 0.1 µM
[5] = second compound 0.316 µM, first compound 0.00316 µM
[6] = second compound 0.316 µM, first compound 0.01 µM
[7] = second compound 0.316 µM, first compound 0.0316 µM
[8] = second compound 0.316 µM, first compound 0.1 µM
[9] = second compound 1 µM, first compound 0.00316 µM
[10] = second compound 1 µM, first compound 0.01 µM
[11] = second compound 1 µM, first compound 0.0316 µM
[12] = second compound 1 µM, first compound 0.1 µM
[13] = second compound 3.16 µM, first compound 0.00316 µM
[14] = second compound 3.16 µM, first compound 0.01 µM
[15] = second compound 3.16 µM, first compound 0.0316 µM
[16] = second compound 3.16 µM, first compound 0.1 µM
[17] = second compound 10 µM, first compound 0.00316 µM
[18] = second compound 10 µM, first compound 0.01 µM
[19] = second compound 10 µM, first compound 0.0316 µM
[20] = second compound 10 µM, first compound 0.1 µM
[21] = second compound 0.1 µM, first compound 0.316 µM
[22] = second compound 0.1 µM, first compound 1 µM
[23] = second compound 0.316 µM, first compound 0.316 µM
[24] = second compound 0.316 µM, first compound 1 µM
[25] = second compound 1 µM, first compound 0.316 µM
[26] = second compound 1 µM, first compound 1 µM
[27] = second compound 3.16 µM, first compound 0.316 µM
[28] = second compound 3.16 µM, first compound 1 µM
[29] = second compound 10 µM, first compound 0.316 µM
[30] = second compound 10 µM, first compound 1 µM

| SMILES | IC50 (second compound 0.1 µM) | IC50 (second compound 0.316 µM) | IC50 (second compound 1 µM) | IC50 (second compound 3.16 µM) | IC50 (second compound 10 µM) | viability, T/C [1] | viability, T/C [2] | viability, T/C [3] | viability, T/C [4] | viability, T/C [5] | viability, T/C [6] | viability, T/C [7] | viability, T/C [8] | viability, T/C [9] | viability, T/C [11] | viability, T/C [12] | viability, T/C [15] | viability, T/C [16] | viability, T/C [19] | viability, T/C [20] | other results |
| --- | --- | --- | --- | --- | --- | --- | --- | --- | --- | --- | --- | --- | --- | --- | --- | --- | --- | --- | --- | --- | --- |
| CC[C@@]1(O)C(=O)OCc2c1cc1n(c2=O)Cc2cc3c(CN(C)C)c(O)ccc3nc2-1 + Cc1cncc(-c2nc(NCCc3c[nH]c4ccccc34)c3ncn(C(C)C)c3n2)c1 | > 0.1 µM | > 0.1 µM | > 0.1 µM | 0.0147 µM | < 0.000316 µM | 95.3% | 91.8% | 81.7% | 71.1% | 108% | 86.2% | 80.5% | 76.8% | 98.2% | 74.6% | 72.4% | 44.5% | 46.4% | 6.14% | 6.3% | viability, T/C (second compound 0.1 µM, first compound 0.000316 µM): 109%; viability, T/C (second compound 0.1 µM, first compound 0.001 µM): 112%; viability, T/C (second compound 0.316 µM, first compound 0.000316 µM): 113%; viability, T/C (second compound 0.316 µM, first compound 0.001 µM): 112%; viability, T/C (second compound 1 µM, first compound 0.000316 µM): 102%; viability, T/C (second compound 1 µM, first compound 0.001 µM): 121%; viability, T/C [10]: 86.9%; viability, T/C (second compound 3.16 µM, first compound 0.000316 µM): 68.3%; viability, T/C (second compound 3.16 µM, first compound 0.001 µM): 72.9%; viability, T/C [13]: 67.6%; viability, T/C [14]: 52.4%; viability, T/C (second compound 10 µM, first compound 0.000316 µM): 9.03%; viability, T/C (second compound 10 µM, first compound 0.001 µM): 8.61%; viability, T/C [17]: 7.61%; viability, T/C [18]: 6.12% |
| COc1ccc([C@@H](O)c2cc(-c3ncnc4cc(N5CCOCC5)ccc34)c(F)cc2Cl)nn1 + Cc1cncc(-c2nc(NCCc3c[nH]c4ccccc34)c3ncn(C(C)C)c3n2)c1 | 5.74 µM | 5.83 µM | 5.99 µM | 2.56 µM | < 0.0316 µM |  |  | 108% | 115% |  |  | 112% | 114% |  | 103% | 118% | 68.6% | 61% | 5% | 4.23% | viability, T/C [21]: 104%; viability, T/C [22]: 86%; viability, T/C (second compound 0.1 µM, first compound 3.16 µM): 61%; viability, T/C (second compound 0.1 µM, first compound 10 µM): 40.3%; viability, T/C [23]: 109%; viability, T/C [24]: 92.5%; viability, T/C (second compound 0.316 µM, first compound 3.16 µM): 59%; viability, T/C (second compound 0.316 µM, first compound 10 µM): 42.1%; viability, T/C [25]: 102%; viability, T/C [26]: 84.8%; viability, T/C (second compound 1 µM, first compound 3.16 µM): 58.6%; viability, T/C (second compound 1 µM, first compound 10 µM): 43.4%; viability, T/C [27]: 64.8%; viability, T/C [28]: 56.2%; viability, T/C (second compound 3.16 µM, first compound 3.16 µM): 48.4%; viability, T/C (second compound 3.16 µM, first compound 10 µM): 36.1%; viability, T/C [29]: 5.09%; viability, T/C [30]: 5.36%; viability, T/C (second compound 10 µM, first compound 3.16 µM): 7.09%; viability, T/C (second compound 10 µM, first compound 10 µM): 9.8% |
| CC1COCCN1c1cc(-c2ccnn2C)c2ccnc(-c3ccn[nH]3)c2n1 (stereo not given) + Cc1ccccc1N=Nc1ccc(NC(=O)c2ccnn2C)c(C)c1 | 0.315 µM | 0.292 µM | 0.266 µM | 0.283 µM | 0.182 µM | 107% | 109% | 97% | 80.8% | 105% | 128% | 109% | 88% | 106% | 109% | 85.6% | 89.7% | 78% | 65% | 59.8% | viability, T/C [21]: 48.9%; viability, T/C [22]: 35%; viability, T/C [23]: 46.6%; viability, T/C [24]: 39.1%; viability, T/C [10]: 109%; viability, T/C [25]: 44.2%; viability, T/C [26]: 32.1%; viability, T/C [13]: 106%; viability, T/C [14]: 97.5%; viability, T/C [27]: 43.5%; viability, T/C [28]: 37%; viability, T/C [17]: 69.1%; viability, T/C [18]: 64.7%; viability, T/C [29]: 40.1%; viability, T/C [30]: 41.9% |

Source: PubChem BioAssay AID1919010 (Molecular Pharmacology Branch, DTP, NCI, 2023)
